Assay results reported in patent US8946216B2, “Indazole derivatives useful as ERK inhibitors” (Merck Sharp & Dohme Corp., priority 2010, dated 2015).

How the values were obtained:
ERK protein = ERK protein (Homo sapiens, UniProt P28482); assay: TdF (Temperature Dependence Fluorescence, thermal shift) assay for ERK; format: binding; conditions: read-out: TdF Kd; 3 μM ERK protein, 15, 50 or 100 μM compound, Sypro Orange; Kd calculated from ΔTm; uncertainty estimated ±50%
Text: Assays: TdF Assay for ERK
The SAR (Structure Activity Relationship) for ERK ligands covered by this invention was interrogated using the TdF (Temperature Dependence Fluorescence) assay or best known as thermal shift assay. The TdF assay was mainly conducted in the 96-well based CHROMO-4 real time fluorescence plate reader (BioRad). The Sypro Orange (Sigma-Aldrich), environmentally sensitive fluorescence dye, was used to monitor the protein folding-unfolding transition. Protein-ligand binding was gauged by the change (or shift) in the unfolding transition temperature (ΔTm) acquired at protein alone with respect to protein in the presence of ligand of interest.
Compound of interest was first prepared in DMSO stock (typical concentration: 10 mM). Sample of 20 μL was then added into the 96-well PCR plate, where it consisted of 3 μM. […] Final percentage of DMSO resided in the sample was 2%. The sample plate was heated from 30° C. to 90° C. with thermal ramping rate of 1 ° C./min. The fluorescence signals were acquired with excitation and emission wavelengths centered at 490 and 560 nm respectively. The instrument thermal stability was ±0.2° C. The melting temperatures (Tm) for ERK protein under aforementioned conditions occurred at 61.0±0.2° C. and 64.8±0.2° C. respectively.
Theoretical Basis for TdF-based Ligand Binding Affinity Constant
The derivation of TdF-based ligand binding affinity constant (Kd) followed closely those previously formulated by Brandts and Lin [2]. In brief, the binding constant of the ligand at the Tm is expressed as below: […]
where T0 is the midpoint of unfolding for unliganded protein and Tm is the midpoint of unfolding in presence of ligand. [LTm] is free ligand at Tm. The ΔHu and ΔCpu are the enthalpy of unfolding and heat capacity change of unfolding for the protein respectively. Following algorithm derived by Winsor and coworker, the T0, ΔHu and ΔCpu can be determined separately from nonlinear regression fitting the protein alone melting curve:
Where F(T) is the observed fluorescence intensity at any temperature T, Yn and Yu are the predicted fluorescence intensities for fully folded and unfolded protein, respectively; mn and mu are slope correction for changes in Yn and Yu with respect to changes in temperature (analogously replace T0 with Tm in the above equation for liganded protein to yield Tm).
where ΔHL(T) is the van't Hoff enthalpy of ligand binding at temperature T and ΔCpL is the heat capacity upon ligand binding. For simplicity, the ΔCpL and ΔHL(T) were set to zero and −7 kcal/mol respectively. The uncertainty in the calculated ligand binding affinity constant was estimated to be ±50%.

[1] = molecular target: unphosphorylated Mouse ERK2 protein (inactive ERK2) (Mus musculus, UniProt P63085); assay: Coupled ERK2 (cERK) assay, coupled MEK1/ERK2 IMAP; format: biochemical; conditions: 30 min preincubation with inactive ERK2, then activation by human MEK1; 30 μM ATP; fluorescence polarization; read-out: cERK2 IC50
Text: • 1. M. W. Pantoliana, E. C. Petrella, J. D. Kwasnoski, V. S. Lobanov, J. Myslik, E. Graf, T. Carver, E. Asel, B. A. Springer, P. Lane, F. R. Salemme, High-density miniaturized thermal shift assays as a general strategy for drug discovery, J. Biomol. Screen 6 (2001) 429-440 • 2. J. F. Brandts, L.-N. Lin, Study of strong to ultratight protein interactions using differential scanning calorimetry, Biochemistry 29 (1990) 6927-6940 • 3. Mayhood, T. W., Windsor, W. T., Ligand binding affinity determined by temperature-dependent circular dichroism: Cyclin-dependent kinase 2 inhibitors, Analytical Biochemistry 345 (2005) 187-197 Coupled ERK2 (cERK) Assay:
14 μl of kinase buffer (10 mM Tris.HCl pH 7.2, 10 mM MgCl2, 0.01% Tween-20, 1 mM DTT) containing 0.4 ng unphosphorylated Mouse ERK2 protein was added to each well of a black 384-well assay plate. […] DMSO concentration during initial incubation is 6.7%. ERK2 activity was determined to be insensitive to DMSO concentrations up to 20%. ERK2 was then activated and it's kinase activity measured by the addition of 10 μl kinase buffer with the following components (final concentration per reaction): 2 ng active (phosphorylated) human MEK1 protein and 4 μM (total) ERK2 IMAP substrate peptides (3.9 μM unlabeled IPTTPITTTYFFFK-CONH2 and 100 nM IPTTPITTTYFFFK(5-carboxyfluorescein)-CONH2) and 30 μM ATP. DMSO concentration during ERK activation was 4%. After one hour, reactions were terminated by addition of 60 μl IMAP detections beads in binding buffer (Molecular Devices). Binding was allowed to equilibrate for 30 minutes before reading the plate on an LJL Analyst Fluorescence Polarization plate reader. […] Active compounds were reconfirmed in an independent assay.

[2] = molecular target: fully phosphorylated, active Mouse ERK2 protein (Mus musculus, UniProt P63085); assay: Active ERK2 (aERK) assay, IMAP format; format: biochemical; conditions: 30 min preincubation; 1 μM substrate peptide, 30 μM ATP; fluorescence polarization; read-out: aERK2 IC50
Procedure: Active ERK2 (aERK) Assay:
Activated ERK2 activity was also determined in the IMAP assay format using the procedure outlined above. 1 μl of 25× compound was added to 14 μl of kinase buffer containing 0.25 ng fully phosphorylated, active Mouse ERK2 protein. Following a 30 minute incubation, the reactions were initiated by addition of 10 μl of kinase buffer containing 1 μM ERK2 IMAP substrate peptide (0.9 μM unlabeled IPTTPITTTYFFFK--CONH2 and 100 nM IPTTPITTTYFFFK(5-carboxyfluorescein)-CONH2) and 30 μM ATP. Reactions proceeded for 30 minutes before termination by addition of 60 μl IMAP detection beads in binding buffer. Plates were read as above after 30 minute binding equilibration. Active compounds were reconfirmed in an independent assay.

Sequence of unphosphorylated Mouse ERK2 protein (inactive ERK2) (P63085 whole entry): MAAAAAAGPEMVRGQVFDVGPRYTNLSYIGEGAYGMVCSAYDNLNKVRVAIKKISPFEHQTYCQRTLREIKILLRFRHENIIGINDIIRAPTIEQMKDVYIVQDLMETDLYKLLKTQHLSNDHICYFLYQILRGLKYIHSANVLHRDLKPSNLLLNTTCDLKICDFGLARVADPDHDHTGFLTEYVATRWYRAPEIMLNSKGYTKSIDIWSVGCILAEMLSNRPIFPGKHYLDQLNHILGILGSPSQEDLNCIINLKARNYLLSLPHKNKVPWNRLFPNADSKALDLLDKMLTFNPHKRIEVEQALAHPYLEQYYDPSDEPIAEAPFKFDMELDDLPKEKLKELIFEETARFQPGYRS
Sequence of fully phosphorylated, active Mouse ERK2 protein (P63085 whole entry): as above
Sequence of ERK protein (P28482 2-360): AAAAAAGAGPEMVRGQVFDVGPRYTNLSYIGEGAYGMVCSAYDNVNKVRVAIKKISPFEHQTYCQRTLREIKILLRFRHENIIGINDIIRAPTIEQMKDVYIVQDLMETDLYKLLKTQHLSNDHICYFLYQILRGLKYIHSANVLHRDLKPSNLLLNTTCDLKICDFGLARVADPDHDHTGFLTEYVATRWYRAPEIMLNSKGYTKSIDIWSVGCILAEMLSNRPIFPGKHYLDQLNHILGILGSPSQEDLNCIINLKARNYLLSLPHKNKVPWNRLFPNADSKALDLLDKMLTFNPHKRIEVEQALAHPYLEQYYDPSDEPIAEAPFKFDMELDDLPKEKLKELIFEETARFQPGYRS

Kd (ERK protein) [µM] | IC50 [1] [µM] | IC50 [2] [µM] | Structure (SMILES)
0.584 | 0.419 |  | O=C(Nc1ccc2[nH]nc(-c3ccncc3)c2c1)C1CN(Cc2ccc(Cl)cc2F)CCO1 (stereo not shown) [Compound 41, 4-[(4-CHLORO-2-FLUOROPHENYL)METHYL]-N-[3-(4-PYRIDINYL)-1H-INDAZOL-5-YL]-2-MORPHOLINECARBOXAMIDE]
1.26 | 2.66 |  | O=C(Nc1ccc2[nH]nc(-c3ccncc3)c2c1)C1CN(Cc2cc(C(F)(F)F)ccc2F)CCO1 (stereo not shown) [Compound 42, 4-[[2-FLUORO-5-(TRIFLUOROMETHYL)PHENYL]METHYL]-N-[3-(4-PYRIDINYL)-1H-INDAZOL-5-YL]-2-MORPHOLINECARBOXAMIDE]
0.91 | 1.78 |  | O=C(Nc1ccc2[nH]nc(-c3ccncc3)c2c1)C1CN(Cc2ccc(F)c(Cl)c2)CCO1 (stereo not shown) [Compound 49, 4-[(3-CHLORO-4-FLUOROPHENYL)METHYL]-N-[3-(4-PYRIDINYL)-1H-INDAZOL-5-YL]-2-MORPHOLINECARBOXAMIDE]
0.727 | 0.4 |  | O=C(Nc1ccc2[nH]nc(-c3ccncc3)c2c1)C1CN(Cc2cc(F)ccc2F)CCO1 (stereo not shown) [Compound 51, 4-[(2,5-DIFLUOROPHENYL)METHYL]-N-[3-(4-PYRIDINYL)-1H-INDAZOL-5-YL]-2-MORPHOLINECARBOXAMIDE]
0.03 | 0.168 |  | O=C(Nc1ccc2[nH]nc(-c3ccncc3)c2c1)C1CNCCN1c1ccccc1 (stereo not shown) [Compound 54, 1-PHENYL-N-[3-(4-PYRIDINYL)-1H-INDAZOL-5-YL]-2-PIPERAZINECARBOXAMIDE]
0.0345 |  | 0.287 | O=C(Nc1ccc2[nH]nc(-c3ccncc3)c2c1)[C@@H]1CCN(Cc2ccccc2)C1 [Compound 62, 1-(PHENYLMETHYL)-N-[3-(4-PYRIDINYL)-1H-INDAZOL-5-YL]-3(R)-PYRROLIDINECARBOXAMIDE]
 |  | 1 | O=C(Nc1ccc2[nH]nc(-c3ccncc3)c2c1)C1CN(CCCc2ccccc2)CCS1 (stereo not shown) [Compound 67, 4-(3-PHENYLPROPYL)-N-[3-(4-PYRIDINYL)-1H-INDAZOL-5-YL]-2-THIOMORPHOLINECARBOXAMIDE]
 |  | 0.895 | O=C(Nc1ccc2[nH]nc(-c3ccncc3)c2c1)C1CN(CCc2ccccc2)CCS1 (stereo not shown) [Compound 68, 4-(2-PHENYLETHYL)-N-[3-(4-PYRIDINYL)-1H-INDAZOL-5-YL]-2-THIOMORPHOLINECARBOXAMIDE]
0.222 |  | 1 | O=C(Nc1ccc2[nH]nc(-c3ccncc3)c2c1)C1CN(Cc2ccccc2)CCC12OCCO2 (stereo not shown) [Compound 72, 8-(PHENYLMETHYL)-N-[3-(4-PYRIDINYL)-1H-INDAZOL-5-YL]-1,4-DIOXA-8-AZASPIRO[4.5]DECANE-6-CARBOXAMIDE]
0.0259 |  | 0.192 | CC(c1ccccc1)N1CCC[C@H](C(=O)Nc2ccc3[nH]nc(-c4ccncc4)c3c2)C1 (stereo partly drawn) [Compound 73, 1-(1-PHENYLETHYL)-N-[3-(4-PYRIDINYL)-1H-INDAZOL-5-YL]-3(S)-PIPERIDINECARBOXAMIDE]
0.25 | 0.35 |  | CNC(=O)c1n[nH]c2ccc(NC(=O)C3CN(Cc4ccccc4F)CCS3)cc12 (stereo not shown) [Compound 75, 5-[[[4-[(2-FLUOROPHENYL)METHYL]-2-THIOMORPHOLINYL]CARBONYL]AMINO]-N-METHYL-1H-INDAZOLE-3-CARBOXAMIDE]
0.92 | 0.873 |  | CCCCNC(=O)c1n[nH]c2ccc(NC(=O)C3CN(Cc4ccccc4F)CCS3)cc12 (stereo not shown) [Compound 76, N-BUTYL-5-[[[4-[(2-FLUOROPHENYL)METHYL]-2-THIOMORPHOLINYL]CARBONYL]AMINO]-1H-INDAZOLE-3-CARBOXAMIDE]
1.8 | 3.1 |  | O=C(NCc1ccccc1)c1n[nH]c2ccc(NC(=O)C3CN(Cc4ccccc4F)CCS3)cc12 (stereo not shown) [Compound 77, 5-[[[4-[(2-FLUOROPHENYL)METHYL]-2-THIOMORPHOLINYL]CARBONYL]AMINO]-N-(PHENYLMETHYL)-1H-INDAZOLE-3-CARBOXAMIDE]
 |  | 0.0019 | CN1CC(Cc2ccccc2)CC(C(=O)Nc2ccc3[nH]nc(-c4ccncc4)c3c2)C1 (stereo not shown) [Compound 78, 1-METHYL-5-(PHENYLMETHYL)-N-[3-(4-PYRIDINYL)-1H-INDAZOL-5-YL]-3-PIPERIDINECARBOXAMIDE]
